Measured values reported in EP4813993A1, “COMPOUND, PREPARATION METHOD THEREFOR, AND USE THEREOF” (Sichuan Kelun Pharmaceutical Research Institute Co., Ltd., priority 2023, dated 2025).

Molecular target: T1, Nav1.8 channels (Homo sapiens, UniProt Q9Y5Y9)
T1 construct: expressed in transfected cells
Assay: Manual patch-clamp, current of stably overexpressed Nav1.8 channels (resting state voltage program)
Format: cell-based
Settings: concentration of 1 nM, read-out: Inhibition rate %
Method: Experimental Example 1: Effects of test substances on current of stably overexpressed Nav1.8 channels monitored via manual patch-clamp technique
Test compounds were dissolved in dimethyl sulfoxide (DMSO).
The extracellular fluid was as follows: 140 mM NaCl, 3.5 mM KCl, 1 mM MgCl2•6H2O, 2 mM CaCl2•2H2O, 10 mM D-Glucose, 10 mM HEPES, 1.25 mM NaH2PO4•2H2O; the pH was adjusted to 7.4 with NaOH. The intracellular fluid was as follows: 50 mM CsCl, 10 mM NaCl, 10 mM HEPES, 60 mM CsF, 20 mM EGTA; the pH was adjusted to 7.2 with CsOH.
2. Experimental materials and instruments
• 1) patch-clamp amplifier: EPC 10 (HEKA) • 2) micromanipulator: MP225 (Sutter Instrument) • 3) inverted microscope: MF53 (Mshot) • 4) micropipette puller: P97 (Sutter Instrument) • 5) capillary glass tube: BF150-86-10 (Sutter Instrument)
3. Experimental procedures
• 1) After the compounds were prepared into solutions with specified concentrations, the solutions were sequentially added to the pipeline of the drug delivery system and labeled. • 2) The cell climbing coverslip was placed in the recording chamber, the appropriate cells were selected under the inverted microscope, and the position of the drug delivery tip was adjusted. • 3) A capillary glass tube was pulled into a suitable recording electrode using the micropipette puller, and then the electrode filled with the intracellular fluid was mounted in the microelectrode holder. The micromanipulator was adjusted under the inverted microscope to allow the recording electrode to contact the cell, and negative pressure was applied to the electrode to form a high-resistance seal. At this time, fast capacitance compensation was performed, and then the application of negative pressure was continued to break the cell membrane, forming a whole-cell recording mode. Finally, slow capacitance compensation was performed, and related parameters were recorded. • 4) After the cell current stabilized, administration was started. Each concentration of the drug was applied for five minutes or until the current stabilized before proceeding to monitor the next concentration. The drug solutions were administered via gravity-fed delivery, flowing through the recording chamber to act on the cells in an ascending order of concentration (from low to high). A peristaltic pump was employed for solution exchange in the recording process.
4 Test voltage program (resting state) and results
After the formation of the whole-cell seal, the cell voltage was clamped at -120 mV, followed by depolarization to 0 mV using a square-wave pulse with a duration of 50 ms to elicit Nav1.8 currents. This procedure was repeated every 20 s to monitor the maximum current induced by the square wave. After the current stabilized, the test compounds were administered. Once the response stabilized, the intensity of the current block was calculated.

T1 sequence (Q9Y5Y9 whole entry): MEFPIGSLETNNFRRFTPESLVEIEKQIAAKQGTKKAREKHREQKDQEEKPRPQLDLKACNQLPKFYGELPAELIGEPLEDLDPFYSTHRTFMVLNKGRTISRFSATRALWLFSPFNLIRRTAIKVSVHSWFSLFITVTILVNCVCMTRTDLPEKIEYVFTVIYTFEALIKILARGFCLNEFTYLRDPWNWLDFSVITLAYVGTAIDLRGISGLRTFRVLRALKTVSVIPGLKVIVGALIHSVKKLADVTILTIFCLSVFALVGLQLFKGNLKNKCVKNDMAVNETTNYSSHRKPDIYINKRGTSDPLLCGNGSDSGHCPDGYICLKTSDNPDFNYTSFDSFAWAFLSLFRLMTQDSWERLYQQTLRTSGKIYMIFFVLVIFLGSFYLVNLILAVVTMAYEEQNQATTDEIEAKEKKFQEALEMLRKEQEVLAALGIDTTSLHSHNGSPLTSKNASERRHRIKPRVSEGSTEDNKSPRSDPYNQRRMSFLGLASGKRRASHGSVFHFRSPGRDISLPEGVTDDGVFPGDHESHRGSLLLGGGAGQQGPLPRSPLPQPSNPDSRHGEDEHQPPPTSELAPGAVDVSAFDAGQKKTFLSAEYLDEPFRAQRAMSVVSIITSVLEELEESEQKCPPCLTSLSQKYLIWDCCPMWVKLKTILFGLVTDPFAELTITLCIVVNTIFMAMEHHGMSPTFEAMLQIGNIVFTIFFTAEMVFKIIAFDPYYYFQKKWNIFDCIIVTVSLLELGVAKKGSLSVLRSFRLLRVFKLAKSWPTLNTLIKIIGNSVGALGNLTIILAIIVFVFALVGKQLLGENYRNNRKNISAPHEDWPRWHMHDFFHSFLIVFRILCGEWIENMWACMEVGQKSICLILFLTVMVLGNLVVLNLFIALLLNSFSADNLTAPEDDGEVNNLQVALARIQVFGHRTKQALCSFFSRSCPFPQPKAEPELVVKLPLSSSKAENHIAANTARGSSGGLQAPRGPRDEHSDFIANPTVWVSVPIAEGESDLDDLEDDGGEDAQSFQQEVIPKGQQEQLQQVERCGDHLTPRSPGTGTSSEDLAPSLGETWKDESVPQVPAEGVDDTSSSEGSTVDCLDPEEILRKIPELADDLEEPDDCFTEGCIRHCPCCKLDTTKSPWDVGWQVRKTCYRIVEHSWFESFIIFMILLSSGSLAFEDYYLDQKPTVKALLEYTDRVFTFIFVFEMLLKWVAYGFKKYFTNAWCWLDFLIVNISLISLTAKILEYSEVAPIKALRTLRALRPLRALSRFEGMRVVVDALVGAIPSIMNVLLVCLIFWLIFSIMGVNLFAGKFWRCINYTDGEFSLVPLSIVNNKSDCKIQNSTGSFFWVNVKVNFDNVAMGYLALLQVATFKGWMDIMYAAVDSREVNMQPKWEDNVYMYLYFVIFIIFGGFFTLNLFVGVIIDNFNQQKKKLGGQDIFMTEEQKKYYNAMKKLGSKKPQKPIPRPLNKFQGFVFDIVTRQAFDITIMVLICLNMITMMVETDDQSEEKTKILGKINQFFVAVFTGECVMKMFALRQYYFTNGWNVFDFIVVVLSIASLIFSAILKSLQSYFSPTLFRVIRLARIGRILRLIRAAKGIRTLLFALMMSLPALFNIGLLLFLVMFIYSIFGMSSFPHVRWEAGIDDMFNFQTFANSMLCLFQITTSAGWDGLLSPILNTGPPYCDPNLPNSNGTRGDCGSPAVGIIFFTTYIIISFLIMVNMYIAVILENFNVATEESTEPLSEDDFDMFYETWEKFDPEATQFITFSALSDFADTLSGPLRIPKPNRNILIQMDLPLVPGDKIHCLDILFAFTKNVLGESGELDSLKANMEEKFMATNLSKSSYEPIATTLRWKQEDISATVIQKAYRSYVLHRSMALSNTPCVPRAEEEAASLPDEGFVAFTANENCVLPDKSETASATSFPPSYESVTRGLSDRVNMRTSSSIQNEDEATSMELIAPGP

Row | SMILES | inhibition at 0.001 µM
1 | COc1c([C@@H]2C[C@](C)(C(F)(F)F)S[C@H]2C(=O)Nc2ccc(C(=O)O)c(O)c2)ccc(F)c1F [Compound 226-A, 4-((2R,3S,5R)-3-(3,4-difluoro-2-methoxyphenyl)-5-methyl-5-(trifluoromethyl)tetrahydrothiophene-2-carboxamido)-2-hydroxybenzoic acid] | 32.2%
2 | COc1c([C@@H]2C[C@](C)(C(F)(F)F)S[C@H]2C(=O)Nc2ccc(B3OC(C)(C)C(C)(C)O3)c(F)c2)ccc(F)c1F [Compound 229-A, (2R,3S,5R)-3-(3,4-difluoro-2-methoxyphenyl)-N-(3-fluoro-4-(4,4,5,5-tetramethyl-1,3,2-dioxaborolan-2-yl)phenyl)-5-methyl-5-(trifluoromethyl)tetrahydrothiophene-2-carboxamide] | 48.6%
3 | COc1c([C@@H]2C[C@](C)(C(F)(F)F)S[C@H]2C(=O)Nc2ccnc(C(F)F)c2)ccc(F)c1F [Compound 244-A, (2R,3S,5R)-3-(3,4-difluoro-2-methoxyphenyl)-N-(2-(difluoromethyl)pyridin-4-yl)-5-methyl-5-(trifluoromethyl)tetrahydrothiophene-2-carboxamide] | 87.8%
4 | COc1c([C@@H]2C[C@](C)(C(F)(F)F)S[C@H]2C(=O)Nc2ccc(N)c(S(N)(=O)=O)c2)ccc(F)c1F [Compound 249-A, (2R,3S,5R)-N-(4-amino-3-sulfamoylphenyl)-3-(3,4-difluoro-2-methoxyphenyl)-5-methyl-5-(trifluoromethyl)tetrahydrothiophene-2-carboxamide] | 81.6%
5 | C=CC(=O)Nc1cc(NC(=O)[C@@H]2S[C@@](C)(C(F)(F)F)C[C@H]2c2ccc(F)c(F)c2OC)ccn1 [Compound 252-A, (2R,3S,5R)-N-(2-acrylamidopyridin-4-yl)-3-(3,4-difluoro-2-methoxyphenyl)-5-methyl-5-(trifluoromethyl)tetrahydrothiophene-2-carboxamide] | 62.7%
6 | CNC(=O)c1cc(NC(=O)[C@@H]2S[C@@](C)(C(F)(F)F)C[C@H]2c2ccc(F)c(F)c2OC)ccn1 [Compound 253-A, 4-((2R,3S,5R)-3-(3,4-difluoro-2-methoxyphenyl)-5-methyl-5-(trifluoromethyl)tetrahydrothiophene-2-carboxamido)-N-methylpicolinamide] | 68.6%
7 | COc1c([C@@H]2C[C@](C)(C(F)(F)F)S[C@H]2C(=O)Nc2ccc(F)c(CO)c2)ccc(F)c1F [Compound 254-A, (2R,3S,5R)-3-(3,4-difluoro-2-methoxyphenyl)-N-(4-fluoro-3-(hydroxymethyl)phenyl)-5-methyl-5-(trifluoromethyl)tetrahydrothiophene-2-carboxamide] | 76.8%

Second part, the compound after the results:

Row | inhibition at 0.001 µM | SMILES
8 | 81% | COc1c(C2CC(C)(C(F)(F)F)SC2C(=O)Nc2ccc3nnnn3c2)ccc(F)c1F (stereo not drawn) [Compound 202, 3-(3,4-difluoro-2-methoxyphenyl)-5-methyl-N-(tetrazolo[1,5-a]pyridin-6-yl)-5-(trifluoromethyl)tetrahydrothiophene-2-carboxamide]
9 | 80.4% | COc1c(C2CC(C)(C(F)(F)F)SC2C(=O)Nc2ccn3nnnc3c2)ccc(F)c1F (stereo not drawn) [Compound 203, 3-(3,4-difluoro-2-methoxyphenyl)-5-methyl-N-(tetrazolo[1,5-a]pyridin-7-yl)-5-(trifluoromethyl)tetrahydrothiophene-2-carboxamide]
10 | 91.2% | COc1c(C2CC(C)(C(F)(F)F)SC2C(=O)Nc2cccc(S(C)(=N)=O)c2)ccc(F)c1F (stereo not drawn) [Compound 225, 3-(3,4-difluoro-2-methoxyphenyl)-5-methyl-N-(3-(S-methylsulfonimidoyl)phenyl)-5-(trifluoromethyl)tetrahydrothiophene-2-carboxamide]
11 | 78.4% | COc1c(C2CC(C)(C(F)(F)F)SC2C(=O)Nc2ccc([S+](C)[O-])nc2)ccc(F)c1F (stereo not drawn) [Compound 232, 3-(3,4-difluoro-2-methoxyphenyl)-5-methyl-N-(6-(methylsulfinyl)pyridin-3-yl)-5-(trifluoromethyl)tetrahydrothiophene-2-carboxamide]
12 | 85.5% | COc1c([C@@H]2C[C@](C)(C(F)(F)F)S[C@H]2C(=O)Nc2ccc([S+](C)[O-])nc2)ccc(F)c1F (stereo partly drawn) [Compound 238-A, (2R,3S,5R)-3-(3,4-difluoro-2-methoxyphenyl)-5-methyl-N-(6-(methylsulfinyl)pyridin-3-yl)-5-(trifluoromethyl)tetrahydrothiophene-2-carboxamide]
13 | 72.6% | COc1c([C@@H]2C[C@](C)(C(F)(F)F)S[C@H]2C(=O)Nc2ccc3nonc3c2)ccc(F)c1F [Compound 248-A, (2R,3S,5R)-N-(benzo[c][1,2,5]oxadiazol-5-yl)-3-(3,4-difluoro-2-methoxyphenyl)-5-methyl-5-(trifluoromethyl)tetrahydrothiophene-2-carboxamide]

Same assay, conditions: concentration of 10 nM, read-out: Inhibition rate %

Row | SMILES | inhibition at 0.01 µM
14 | COc1c(C2CC(C)(C(F)(F)F)SC2C(=O)Nc2ccnc(S(C)(=O)=O)c2)ccc(F)c1F (stereo not drawn) [Compound 192, (4-(3-(3,4-difluoro-2-methoxyphenyl)-5-methyl-5-(trifluoromethyl)tetrahydrothiophene-2-carboxamido)-2-methylsulfonyl)pyridine] | 96.4%
15 | COc1c(C2CC(C)(C(F)(F)F)SC2C(=O)Nc2cn(C(F)F)nc2C)ccc(F)c1F (stereo not drawn) [Compound 199, (4-(3-(3,4-difluoro-2-methoxyphenyl)-5-methyl-5-(trifluoromethyl)tetrahydrothiophene-2-carboxamido)-1-difluoromethyl-3-methyl)pyrazole] | 89.4%
16 | COc1c(C2CC(C)(C(F)(F)F)SC2C(=O)Nc2ccc3c(c2)COB3O)ccc(F)c1F (stereo not drawn) [Compound 219, 3-(3,4-difluoro-2-methoxyphenyl)-N-(1-hydroxy-1,3-dihydrobenzo[c][1,2]oxaborol-5-yl)-5-methyl-5-(trifluoromethyl)tetrahydrothiophene-2-carboxamide] | 88%
17 | [2H]C1(C(=O)Nc2ccnc(O)c2)SC(C)(C(F)(F)F)CC1c1ccc(F)c(F)c1OC (stereo not drawn) [Compound 222, 3-(3,4-difluoro-2-methoxyphenyl)-N-(2-hydroxypyridin-4-yl)-5-methyl-5-(trifluoromethyl)tetrahydrothiophene-2-d-2-carboxamide] | 97%
18 | COc1c(C2CC(C)(C(F)(F)F)SC2C(=O)Nc2ccc(F)c(S(C)(=N)=O)c2)ccc(F)c1F (stereo not drawn) [Compound 227, 3-(3,4-difluoro-2-methoxyphenyl)-N-(4-fluoro-3-(S-methylsulfonimidoyl)phenyl)-5-methyl-5-(trifluoromethyl)tetrahydrothiophene-2-carboxamide] | 97.7%
19 | COc1c([C@@H]2C[C@](C)(C(F)(F)F)S[C@H]2C(=O)Nc2cccc(S(=O)(=O)N(C)C)c2)ccc(F)c1F [Compound 240-A, (2R,3S,5R)-3-(3,4-difluoro-2-methoxyphenyl)-N-(3-(N,N-dimethylsulfamoyl)phenyl)-5-methyl-5-(trifluoromethyl)tetrahydrothiophene-2-carboxamide] | 87.4%
20 | CNS(=O)(=O)c1cccc(NC(=O)[C@@H]2S[C@@](C)(C(F)(F)F)C[C@H]2c2ccc(F)c(F)c2OC)c1 [Compound 241-A, (2R,3S,5R)-3-(3,4-difluoro-2-methoxyphenyl)-5-methyl-N-(3-(N-methylsulfamoyl)phenyl)-5-(trifluoromethyl)tetrahydrothiophene-2-carboxamide] | 95.4%

Continued, values first:

Row | inhibition at 0.01 µM | SMILES
21 | 88.8% | COc1c([C@@H]2C[C@](C)(C(F)(F)F)S[C@H]2C(=O)Nc2ccnc(OCC(O)CO)c2)ccc(F)c1F (stereo partly drawn) [Compound 191-A, (2R,3S,5R)-3-(3,4-difluoro-2-methoxyphenyl)-N-(2-(2,3-dihydroxypropoxy)pyridin-4-yl)-5-methyl-5-(trifluoromethyl)tetrahydrothiophene-2-carboxamide]
22 | 91.1% | COc1c(C2CC(C)(C(F)(F)F)SC2C(=O)Nc2conc2C)ccc(F)c1F (stereo not drawn) [Compound 197, 3-(3,4-difluoro-2-methoxyphenyl)-5-methyl-N-(3-methylisoxazol-4-yl)-5-(trifluoromethyl)tetrahydrothiophene-2-carboxamide]
23 | 83.7% | COc1c([C@@H]2C[C@](C)(C(F)(F)F)S[C@H]2C(=O)Nc2ccc(SC)nc2)ccc(F)c1F [Compound 231-A, (2R,3S,5R)-3-(3,4-difluoro-2-methoxyphenyl)-5-methyl-N-(6-(methylthio)pyridin-3-yl)-5-(trifluoromethyl)tetrahydrothiophene-2-carboxamide]
24 | 96.1% | COc1c(C2CC(C)(C(F)(F)F)SC2C(=O)Nc2ccc([S+](C)[O-])nc2)ccc(F)c1F (stereo not drawn) [Compound 232, 3-(3,4-difluoro-2-methoxyphenyl)-5-methyl-N-(6-(methylsulfinyl)pyridin-3-yl)-5-(trifluoromethyl)tetrahydrothiophene-2-carboxamide]
